{"source": "patent US9688624B2", "about": "“DP2 antagonist and uses thereof” (Brickell Biotech, Inc., priority 2010, dated 2017)", "key": {"[1]": {"target": "guinea pig DP2 receptor (Cavia porcellus, UniProt H0W1T0)", "sequence (H0W1T0 1-391)": "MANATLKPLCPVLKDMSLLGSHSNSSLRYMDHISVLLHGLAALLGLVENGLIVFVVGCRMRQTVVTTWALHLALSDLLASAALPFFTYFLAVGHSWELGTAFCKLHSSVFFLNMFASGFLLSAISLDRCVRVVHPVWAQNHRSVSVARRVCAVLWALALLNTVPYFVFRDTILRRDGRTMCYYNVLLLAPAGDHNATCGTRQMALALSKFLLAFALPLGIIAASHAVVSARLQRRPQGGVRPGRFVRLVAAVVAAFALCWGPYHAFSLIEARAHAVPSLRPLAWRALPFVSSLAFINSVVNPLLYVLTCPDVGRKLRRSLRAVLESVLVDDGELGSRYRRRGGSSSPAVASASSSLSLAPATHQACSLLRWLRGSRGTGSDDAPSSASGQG", "assay": "In vitro DP2/CRTH2 radioligand ([3H]PGD2) membrane binding assay", "procedure": "Example 15: In Vitro DP2/CRTH2 Binding Assay\nThe ability of Compound 1 to bind to the human DP2 receptor was assessed via a radioligand binding assay using [^3H]PGD2. HEK293 cells stably expressing recombinant human DP2 are resuspended in 10 mM Hepes, 7.4 containing 1 mM DTT, lysed and centrifuged at 75,000×g to pellet the membranes. The membranes are resuspended in 10 mM Hepes, 7.4 containing 1 mM DTT and 10% glycerol to approximately 5 mg protein/ml. Membranes (2-10 μg protein/well) are incubated in 96-well plates with 1 nM [^3H]PGD2 and Compound 1 in Assay Buffer (50 mM Hepes, 10 mM MnCl2, 1 mM EDTA, plus or minus 0.2% human serum albumin, pH 7.4) for 60 minutes at room temperature. The reactions are terminated by rapid filtration through Whatman GF/C glass fibre filter plates. The filter plates were pre-soaked in 0.33% polythylenimine for 30 minutes at room temperature then washed in Wash Buffer (50 mM Hepes, 0.5 M NaCl pH 7.4) prior to harvesting. After harvesting, the filter plates are washed 3 times with 1 ml cold Wash Buffer then dried. Scintillant is then added to the plates and the radioactivity retained on the filters is determined on a Packard TopCount (Perkin Elmer). Specific binding is determined as total radioactive binding minus non-specific binding in the presence of 10 μM PGD2. IC50s were determined using GraphPad prism analysis of drug titration curves. […]"}, "[2]": {"target": "T1, CYP2C9 (Homo sapiens (Human), UniProt P11712)", "T1 sequence (P11712 whole entry)": "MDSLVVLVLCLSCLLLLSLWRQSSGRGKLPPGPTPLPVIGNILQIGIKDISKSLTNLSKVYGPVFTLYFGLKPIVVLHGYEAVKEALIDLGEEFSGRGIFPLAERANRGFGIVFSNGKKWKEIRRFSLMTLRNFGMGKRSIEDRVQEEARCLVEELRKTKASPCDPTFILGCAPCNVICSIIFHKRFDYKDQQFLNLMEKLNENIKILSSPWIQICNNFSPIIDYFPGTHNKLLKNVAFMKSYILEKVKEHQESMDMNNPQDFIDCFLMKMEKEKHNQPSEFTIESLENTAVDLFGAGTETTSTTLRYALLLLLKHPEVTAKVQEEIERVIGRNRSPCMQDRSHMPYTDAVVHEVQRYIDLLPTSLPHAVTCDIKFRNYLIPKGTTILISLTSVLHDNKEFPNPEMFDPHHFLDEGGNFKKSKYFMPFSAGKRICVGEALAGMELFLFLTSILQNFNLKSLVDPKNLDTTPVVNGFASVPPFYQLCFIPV", "format": "in vitro ADME", "conditions": "human hepatocytes, 10 μM"}, "[3]": {"test_system": "ovalbumin (OVA)-induced allergic rhinitis", "assay": "Mouse allergic rhinitis model", "format": "in vivo", "conditions": "10 mg/kg PO daily", "procedure": "Example 18: Mouse Allergic Rhinitis Model\nCompound 2 was evaluated in a mouse model of ovalbumin (OVA)-induced allergic rhinitis in which nasal ovalbumin challenges to OVA-primed mice elicits an increase in sneezing and nasal rubs (Methods were adapted from those detailed in Nakaya, M., et al. 2006, Laboratory Investigation, 86:917-926). OVA-primed mice received an intranasal challenge of OVA daily for 5 consecutive days. The number of sneezes and nasal rubs were counted over an 8 minute recording session on days 1, 3 and 5 immediately following OVA challenge. OVA caused a significant increase in both sneezing behavior and nasal rubs when compared to intranasal phosphate buffered saline (PBS) challenge. […] The plasma exposure for Compound 1 measured in a satellite group was 1360 nM, 460 nM, 210 nM and 90 nM for time points 1, 2, 4, and 6 hr post-dose, respectively."}, "[4]": {"assay": "Gravimetric vapour sorption (GVS)", "format": "physicochemical", "conditions": "25° C.", "procedure": "Example 5: Gravimetric Vapour Sorption (GVS)\nSorption isotherms were obtained using a SMS DVS Intrinsic moisture sorption analyzer, controlled by SMS Analysis Suite software. The sample temperature was maintained at 25° C. by the instrument controls. The humidity was controlled by mixing streams of dry and wet nitrogen, with a total flow rate of 200 ml·min-1. The relative humidity was measured by a calibrated Rotronic probe (dynamic range of 1.0-100% RH), located near the sample. The weight change, (mass relaxation) of the sample as a function of % RH was constantly monitored by the microbalance (accuracy ±0.005 mg). Typically 5-20 mg of sample was placed in a tared mesh stainless steel basket under ambient conditions. The sample was loaded and unloaded at 40% RH and 25° C. (typical room conditions). A moisture sorption isotherm was performed as outlined below (2 scans giving 1 complete cycle). The standard isotherm was performed at 25° C. at 10% RH intervals over a 0.5-90% RH range"}, "[5]": {"target": "DP2 receptor (Homo sapiens (Human), UniProt Q9Y5Y4)", "sequence (Q9Y5Y4 whole entry)": "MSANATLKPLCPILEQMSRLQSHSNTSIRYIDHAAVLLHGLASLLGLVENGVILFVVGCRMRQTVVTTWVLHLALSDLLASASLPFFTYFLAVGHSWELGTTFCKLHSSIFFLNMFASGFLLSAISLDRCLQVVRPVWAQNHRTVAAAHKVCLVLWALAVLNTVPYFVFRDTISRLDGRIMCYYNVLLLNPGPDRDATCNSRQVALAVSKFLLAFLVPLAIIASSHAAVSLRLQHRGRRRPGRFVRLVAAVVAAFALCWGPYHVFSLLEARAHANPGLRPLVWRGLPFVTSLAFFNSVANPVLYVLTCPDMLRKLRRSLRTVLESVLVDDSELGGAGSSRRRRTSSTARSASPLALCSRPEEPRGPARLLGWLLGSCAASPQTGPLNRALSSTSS", "assay": "Phase I single ascending dose study, ex vivo PGD2-induced blood eosinophil shape change (ESC)", "format": "in vivo", "conditions": "humans", "procedure": "Procedure Evaluate Effects of Compound 1 on Ex Vivo PGD2-Induced Blood Eosinophil Shape Change (ESC)\nPre dose blood is drawn and challenged with PGD2 to determine baseline shape change as described above in Example 17. At varying times after dosing blood is drawn for both pharmacokinetic analyses of drug concentration in blood, and also for PGD2 challenge and eosinophil shape change determination. The extent of receptor blockage is determined from the relationship between drug blood concentration and percentage inhibition of eosinophil shape change."}, "[6]": {"target": "T1, CYP2C9", "assay": "Extracellular cytochrome P450 inhibition (microsomes)", "format": "in vitro ADME", "conditions": "2C9, diclofenac 4′-hydroxylation"}, "[7]": {"target": "CYP1A2 (Homo sapiens (Human), UniProt P05177)", "sequence (P05177 whole entry)": "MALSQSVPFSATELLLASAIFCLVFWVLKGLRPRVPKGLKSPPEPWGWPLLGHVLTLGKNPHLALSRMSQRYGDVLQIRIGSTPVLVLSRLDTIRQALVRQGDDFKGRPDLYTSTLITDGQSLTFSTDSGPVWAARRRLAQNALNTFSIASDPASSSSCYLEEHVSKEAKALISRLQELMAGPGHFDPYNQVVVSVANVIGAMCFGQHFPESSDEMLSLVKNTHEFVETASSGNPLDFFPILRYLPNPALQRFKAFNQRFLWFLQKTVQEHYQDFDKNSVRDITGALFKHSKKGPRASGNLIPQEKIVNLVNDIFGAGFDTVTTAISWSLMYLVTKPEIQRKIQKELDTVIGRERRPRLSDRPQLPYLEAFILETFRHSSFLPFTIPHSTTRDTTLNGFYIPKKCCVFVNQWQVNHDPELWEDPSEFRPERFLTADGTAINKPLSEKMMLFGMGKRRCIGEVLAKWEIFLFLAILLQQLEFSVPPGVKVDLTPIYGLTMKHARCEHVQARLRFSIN", "assay": "Extracellular cytochrome P450 inhibition (microsomes)"}, "[8]": {"assay": "Regional dosing study in rat (pharmacokinetics)", "format": "in vivo", "conditions": "for Tmax / AUC / Cmax / bioavailability / half-life: Sprague-Dawley, in vivo", "source_text": "Example 11: Regional Dosing Study\nMale Sprague-Dawley rats (weighing from about 200 to about 300 grams) in the fasted state received a single injection of a solution of Compound 2 (5% methocel) in the duodenum, jejunum or ileum. This was compared with PO administration of the same formulation of Compound 2. […]"}, "[9]": {"target": "CYP3A4 (Homo sapiens (Human), UniProt P08684)", "sequence (P08684 whole entry)": "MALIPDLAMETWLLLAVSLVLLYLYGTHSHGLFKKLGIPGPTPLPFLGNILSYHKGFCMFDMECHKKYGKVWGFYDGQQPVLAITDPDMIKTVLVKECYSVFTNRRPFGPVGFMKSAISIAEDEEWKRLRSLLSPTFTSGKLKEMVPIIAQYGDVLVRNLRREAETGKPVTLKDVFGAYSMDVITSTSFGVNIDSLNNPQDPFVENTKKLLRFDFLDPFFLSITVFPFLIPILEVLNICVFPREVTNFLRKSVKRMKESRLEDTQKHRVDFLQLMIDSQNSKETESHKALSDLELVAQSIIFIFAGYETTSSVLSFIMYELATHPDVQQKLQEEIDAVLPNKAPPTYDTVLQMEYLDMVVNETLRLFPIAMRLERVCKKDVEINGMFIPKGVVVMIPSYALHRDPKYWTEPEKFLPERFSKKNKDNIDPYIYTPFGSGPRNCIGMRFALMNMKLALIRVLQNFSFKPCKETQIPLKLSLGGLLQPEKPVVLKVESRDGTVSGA", "assay": "Extracellular cytochrome P450 inhibition (microsomes)", "format": "in vitro ADME"}}, "note": "Structures can show the parent of a compound that is named as a salt. Where two headings read alike, the source gives them in different places.", "data": [{"smiles": "COc1ccc(CC(=O)O)cc1Oc1ccc(NC(=O)C(C)(C)C)cc1CSC(C)(C)C", "note": "[Compound 1, 2-(3-(2-((tert-butylthio)methyl)-4-(2,2-dimethyl-propionylamino)phenoxy)-4-methoxyphenyl)acetic acid]", "values": [{"measurement": "IC50", "setting": "[1]; 0.2% guinea pig serum albumin, read-out: IC50, radioligand membrane binding on guinea pig DP2", "value": 0.0203, "unit": "µM"}, {"measurement": "IC50", "setting": "[1]; average, without serum albumin, read-out: IC50, inhibition of radiolabeled PGD2 binding to guinea pig DP2", "value": 0.0106, "unit": "µM"}, {"measurement": "induction of CYP2C9", "setting": "[2]", "value": "not a strong inducer"}]}, {"smiles": "COc1ccc(CC(=O)O)cc1Oc1ccc(NC(=O)C(C)(C)C)cc1CSC(C)(C)C", "note": "[Compound 2, 2-(3-(2-((tert-butylthio)methyl)-4-(2,2-dimethyl-propionylamino)phenoxy)-4-methoxyphenyl)acetic acid, sodium salt]", "values": [{"measurement": "nasal responses (sneezes and nasal rubs) after OVA challenge", "setting": "[3]", "value": "significantly reduced"}, {"measurement": "hygroscopicity (GVS observation)", "setting": "[4]; listed as Amorphous Compound 2, sodium salt", "value": "deliquesced"}, {"measurement": "GVS mass change", "setting": "[4]; at 80% R.H.", "value": "> 30", "unit": "% w/w"}, {"measurement": "24 hr PD response (inhibition of ex vivo ESC)", "setting": "[5]; 500 mg single dose, 24 hr", "value": "~50", "unit": "%"}, {"measurement": "pharmacodynamic dose response (ex vivo ESC inhibition)", "setting": "[5]; >150 mg, at 0.5, 2 hr and 8 hr", "value": "maximal inhibition achieved"}, {"measurement": "IC50", "setting": "[6]", "value": "> 50", "unit": "µM"}, {"measurement": "IC50", "setting": "[7]", "value": "> 25", "unit": "µM"}, {"measurement": "Tmax", "setting": "[8]; iv, 2 mg/kg", "value": 0.08, "unit": "h"}, {"measurement": "AUC", "setting": "[8]; male, 10 mg/kg, duodenum", "value": 5010, "unit": "ng·h/mL"}, {"measurement": "Cmax", "setting": "[8]; male, 10 mg/kg, duodenum", "value": 4310, "unit": "ng/mL"}, {"measurement": "Tmax", "setting": "[8]; male, 10 mg/kg, duodenum", "value": 0.25, "unit": "h"}, {"measurement": "bioavailability", "setting": "[8]; male, 10 mg/kg, duodenum", "value": 27.3, "unit": "%"}, {"measurement": "half-life", "setting": "[8]; male, 10 mg/kg, duodenum", "value": 4.12, "unit": "h"}, {"measurement": "AUC", "setting": "[8]; male, 10 mg/kg, ileum", "value": 1980, "unit": "ng·h/mL"}, {"measurement": "Cmax", "setting": "[8]; male, 10 mg/kg, ileum", "value": 610, "unit": "ng/mL"}, {"measurement": "Tmax", "setting": "[8]; male, 10 mg/kg, ileum", "value": 0.63, "unit": "h"}, {"measurement": "bioavailability", "setting": "[8]; male, 10 mg/kg, ileum", "value": 10.8, "unit": "%"}, {"measurement": "half-life", "setting": "[8]; male, 10 mg/kg, ileum", "value": 5.06, "unit": "h"}, {"measurement": "AUC", "setting": "[8]; male, 10 mg/kg, jejunum", "value": 8110, "unit": "ng·h/mL"}, {"measurement": "Cmax", "setting": "[8]; male, 10 mg/kg, jejunum", "value": 12700, "unit": "ng/mL"}, {"measurement": "Tmax", "setting": "[8]; male, 10 mg/kg, jejunum", "value": 0.25, "unit": "h"}, {"measurement": "bioavailability", "setting": "[8]; male, 10 mg/kg, jejunum", "value": 44.2, "unit": "%"}, {"measurement": "half-life", "setting": "[8]; male, 10 mg/kg, jejunum", "value": 5.29, "unit": "h"}, {"measurement": "AUC", "setting": "[8]; male, iv, 2 mg/kg", "value": 3670, "unit": "ng·h/mL"}, {"measurement": "half-life", "setting": "[8]; male, iv, 2 mg/kg", "value": 2, "unit": "h"}, {"measurement": "AUC", "setting": "[8]; male, po, 10 mg/kg", "value": 4370, "unit": "ng·h/mL"}, {"measurement": "Cmax", "setting": "[8]; male, po, 10 mg/kg", "value": 3060, "unit": "ng/mL"}, {"measurement": "Tmax", "setting": "[8]; male, po, 10 mg/kg", "value": 0.75, "unit": "h"}, {"measurement": "bioavailability", "setting": "[8]; male, po, 10 mg/kg", "value": 23.8, "unit": "%"}, {"measurement": "half-life", "setting": "[8]; male, po, 10 mg/kg", "value": 1.5, "unit": "h"}, {"measurement": "site of absorption", "setting": "[8]; regional dosing", "value": "preferentially absorbed in the jejunum"}, {"measurement": "IC50", "setting": "[9]; 3A4, midazolam 1-hydroxylation, read-out: IC50", "value": "> 50", "unit": "µM"}, {"measurement": "IC50", "setting": "[9]; 3A4, testosterone 6β-hydroxylation, read-out: IC50", "value": 26, "unit": "µM"}, {"measurement": "IC50", "setting": "[9]; not a potent inhibitor, read-out: IC50, CYP3A4 (summary statement)", "value": "> 25", "unit": "µM"}]}]}
